This note sets out measurements from patent US8071119B2, “Controlled release implantable dispensing device and method” (Sustained Nano Systems LLC, priority 2007, dated 2011).

Data set [1] is described as follows: longer term subconjunctival implantation of pellets in rabbit ocular tissues (HPLC tissue levels, histology). It is filed as in vivo. The following applies: other: subconjunctival implantation of a pellet, 13 weeks after implantation in right eye, 301,568 psi pellet. On the procedure:
A study was performed to assess the effects of longer term implantation of cylindrical pellets compressed at 301,568 psi, measuring 5 mm length×3 mm diameter, in rabbit ocular tissues. A new 3-mm diameter mold (prepared and adapted to fit/interchange with the supporting hardware of the 7.87 mm diameter mold) was utilized to prepare the smaller pellets required for the rabbit eye. Due to dimensional considerations and the need to reconcile with the pressure applied for preparing the pellets and the mechanical tolerance of the mold, the incremental pressurization approach, described above was utilized, an initial pressure of 1000 lb was applied; thereafter, ˜500 lb of additional pressure was applied approximately every 5 minutes until it reached about 300,000 psi range. The height of the pellets (cylinders) produced were about 5 mm. The pressure noted was 301,568 psi. Similar to the pig model as described above, the pellets were implanted beneath the conjunctiva in the superotemporal quadrant of the right eyes. At stipulated time-points, the rabbits were euthanized to harvest the ocular tissues. Accordingly, the implant sites were dissected out and the rest of the tissues were further separated into: sclera/conjunctiva, cornea and lens. FIG. 7 depicts the histology (cryosectioned, H&E stained) of an implant site 9 weeks post-op.
The dexamethasone levels in rabbit ocular tissue is determined after 13 weeks and is reported in nanograms of dexamethasone per mg of tissue in Table 1. The sclera/conjunctiva, cornea and lens are recovered, processed, and extracted. Dexamethasone levels are determined by HPLC assay. Table 1 reports the dexamethasone recovered from the rabbit ocular tissues after 13 weeks of implantation, which is the longest duration for this study series.

Data set [2] in a line: dexamethasone levels after subconjunctival implantation in pig eyes. As to conditions: pigs, after subconjunctival implantation of the 211,685 psi disc. The class given is in vivo. The protocol:
A cylindrical shaped dosage form is made using dexamethasone and the polymer system was prepared as described above. The dosage form measures 7.87 mm in diameter, has a thickness of 1 mm, a weight of 60 mg and a drug loading of 6.5%. […] The dosage form is placed beneath the conjunctiva in the super temporal quadrant of the eyes of five pigs. […]

SMILES strings stand for the structures. Read-outs that look alike come from different tables or passages of the source.

Regarding `C[C@@H]1C[C@H]2[C@@H]3CCC4=CC(=O)C=C[C@]4(C)[C@@]3(F)[C@@H](O)C[C@]2(C)[C@@]1(O)C(=O)CO` [dexamethasone], the concentration at 13 weeks came to 18300 ng/g in data set [1] (left lens (eye without implant), read-out: dexamethasone level in Left Lens); 20300 ng/g in data set [1] (left sclera/conjunctiva (eye without implant), read-out: dexamethasone level in Left Sclera/Conjunctiva); 40400 ng/g in data set [1] (right cornea (implanted eye), read-out: dexamethasone level in Right Cornea); 78100 ng/g in data set [1] (right lens (implanted eye), read-out: dexamethasone level in Right Lens); 415000 ng/g in data set [1] (right sclera/conjunctiva (implanted eye), read-out: dexamethasone level in Right Sclera/Conjunctiva). Also, the dexamethasone in plasma entry in data set [2] is “no detectable dexamethasone”.
